In the test the target is T1, human A2a receptor (Homo sapiens, UniProt P29274).
T1 construct: purchased Perkin-Elmer RBHA2AM400UA; host or cells: HEK293 cells, used as a membrane preparation
T1 sequence (P29274 whole entry): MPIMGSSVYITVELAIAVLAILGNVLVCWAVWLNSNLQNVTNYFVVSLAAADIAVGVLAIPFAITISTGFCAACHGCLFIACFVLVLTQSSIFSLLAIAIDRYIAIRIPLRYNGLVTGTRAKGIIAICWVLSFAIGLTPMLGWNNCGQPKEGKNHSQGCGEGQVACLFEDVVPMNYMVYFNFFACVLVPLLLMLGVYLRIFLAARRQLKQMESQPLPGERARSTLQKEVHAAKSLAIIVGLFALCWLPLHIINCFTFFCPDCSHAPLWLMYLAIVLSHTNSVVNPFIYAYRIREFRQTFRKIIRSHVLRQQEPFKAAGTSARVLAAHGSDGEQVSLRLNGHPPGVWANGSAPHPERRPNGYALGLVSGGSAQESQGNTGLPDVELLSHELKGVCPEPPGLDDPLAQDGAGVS
Description: A2a receptor competition binding assay (Scintillation Proximity). The conditions noted are these: membranes from HEK293 cells expressing human A2a receptor; 0.5 nM tritiated ligand; Cheng-Prusoff; read-out: A2a Ki. In short, it runs like this: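 HEK293 membranes bearing the human receptor, pretreated with adenosine deaminase, competed against 0.5 nM tritiated pyrazolotriazolopyrimidine antagonist with compound at 3000–0.15 nM final in DPBS plus 10 mM MgCl2. SPA bead readout after 1 h at room temperature; Ki from EC50 via Cheng-Prusoff.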
With `COc1cccc2c1nc(N)n1cc(C(=O)N3C[C@@H](C)O[C@H](C)C3)nc21` [Ex-239, (5-amino-7-methoxyimidazo[1,2-c]quinazolin-2-yl)((2R,6R)-2,6-dimethylmorpholino) methanone], the Ki worked out at 0.13 µM.

Regarding `COc1cccc2c1nc(N)n1cc(C(=O)N3CCCC(OC)C3)nc21` (centres unmarked) [Ex-240, (5-amino-7-methoxyimidazo[1,2-c]quinazolin-2-yl)(3-methoxypiperidin-1-yl)methanone], the inhibition constant Ki worked out at 0.0306 µM. Under `COc1cccc2c1nc(N)n1cc(C(=O)N3CCCC(F)(F)C3)nc21` [Ex-241, (5-amino-7-methoxyimidazo[1,2-c]quinazolin-2-yl)(3,3-difluoropiperidin-1-yl)methanone] stands 0.013 µM; under `COc1cccc2c1nc(N)n1cc(C(=O)N3CCCC4(CC4)C3)nc21` [Ex-242, (5-amino-7-methoxyimidazo[1,2-c]quinazolin-2-yl)(5-azaspiro[2.5]octan-5-yl)methanone], 0.0043 µM. To `CC(=O)Nc1ccc2c(c1)CN(C(=O)c1cn3c(N)nc4c(F)cccc4c3n1)CC2` [Ex-244, N-(2-(5-amino-7-fluoroimidazo[1,2-c]quinazoline-2-carbonyl)-1,2,3,4-tetrahydroisoquinolin-7-yl)acetamide] belongs 0.0496 µM; to `COc1cccc2c1nc(N)n1cc(C(=O)N3CCN4CCCC[C@@H]4C3)nc21` [Ex-245, (R)-(5-amino-7-methoxyimidazo[1,2-c]quinazolin-2-yl)(octahydro-2H-pyrido[1,2-a]pyrazin-2-yl)methanone], 0.152 µM; to `Nc1nc2c(F)cccc2c2nc(C(=O)NCc3ccccc3CN3CCN(c4ccccn4)CC3)cn12` [Ex-246, 5-amino-7-fluoro-N-(2-((4-(pyridin-2-yl)piperazin-1-yl)methyl)benzyl)imidazo[1,2-c]quinazoline-2-carboxamide], 0.021 µM. Under `Nc1nc2c(F)cccc2c2nc(C(=O)N3CCc4cccc(CN5CCN(c6ccc(F)cc6F)CC5)c4C3)cn12` [Ex-247] stands 0.12 µM. In the case of `Nc1nc2c(F)cccc2c2nc(C(=O)NC3CCNc4ccccc43)cn12` (centres unmarked) [Ex-248, 5-amino-7-fluoro-N-(1,2,3,4-tetrahydroquinolin-4-yl)imidazo[1,2-c]quinazoline-2-carboxamide], the Ki is 0.009 µM. Under `Nc1nc2c(F)cccc2c2nc(C(=O)NCc3ccccc3CN3CCN(c4ccc(F)cc4F)CC3)cn12` [Ex-249, 5-amino-N-(2-((4-(2,4-difluorophenyl)piperazin-1-yl)methyl)benzyl)-7-fluoroimidazo[1,2-c]quinazoline-2-carboxamide] stands 0.018 µM; under `Nc1nc2c(F)cccc2c2nc(C(=O)NCc3ccccc3N3CCOCC3)cn12` [Ex-250, 5-amino-7-fluoro-N-(2-morpholinobenzyl)imidazo [1,2-c]quinazoline-2-carboxamide], 0.002 µM. Turning to `Nc1nc2c(F)cccc2c2nc(C(=O)N3CCc4cccc(CN5CCN(c6ccccn6)CC5)c4C3)cn12` [Ex-251, (5-amino-7-fluoroimidazo[1,2-c]quinazolin-2-yl)(8-((4-(pyridin-2-yl)piperazin-1-yl)methyl)-3,4-dihydroisoquinolin-2(1H)-yl)methanone], the Ki came out at 0.091 µM. To `Nc1nc2c(F)cccc2c2nc(C(=O)NCc3cccc(N4CCN(c5ccc(F)cc5F)CC4)c3)cn12` [Ex-252, 5-amino-N-(3-(4-(2,4-difluorophenyl)piperazin-1-yl)benzyl)-7-fluoroimidazo[1,2-c]quinazoline-2-carboxamide] belongs 0.0072 µM; to `COCCOc1ccc(N2CCN(c3ccccc3CNC(=O)c3cn4c(N)nc5c(F)cccc5c4n3)CC2)cc1` [Ex-253, 5-amino-7-fluoro-N-(2-(4-(4-(2-methoxyethoxy)phenyl)piperazin-1-yl)benzyl)imidazo[1,2-c]quinazoline-2-carboxamide], 0.0037 µM; to `COCCOc1ccc(N2CCN(c3cccc(CNC(=O)c4cn5c(N)nc6c(F)cccc6c5n4)c3)CC2)cc1` [Ex-254, 5-amino-7-fluoro-N-(3-(4-(4-(2-methoxyethoxy)phenyl)piperazin-1-yl)benzyl)imidazo[1,2-c]quinazoline-2-carboxamide], 0.0051 µM.

As to `Nc1nc2c(F)cccc2c2nc(C(=O)NCc3ccccc3CN3CCOCC3)cn12` [Ex-255, 5-amino-7-fluoro-N-(2-(morpholinomethyl)benzyl) imidazo[1,2-c]quinazoline-2-carboxamide], the inhibition constant Ki is 0.0061 µM. To `CC(C)(C)OC(=O)N1CCN(c2ccccc2CNC(=O)c2cn3c(N)nc4c(F)cccc4c3n2)CC1` [Ex-256, tert-butyl 4-(2-((5-amino-7-fluoroimidazo[1,2-c]quinazoline-2-carboxamido)methyl)phenyl) piperazine-1-carboxylate] belongs 0.0045 µM; to `Nc1nc2c(F)cccc2c2nc(C(=O)NCc3cccc(N4CCOCC4)c3)cn12` [Ex-257, 5-amino-7-fluoro-N-(3-morpholino-benzyl)imidazo-[1,2-c]-quinazoline-2-carboxamide], 0.0036 µM; to `Nc1nc2c(F)cccc2c2nc(C(=O)NCc3cccc(CN4CCOCC4)c3)cn12` [Ex-258, 5-amino-7-fluoro-N-(3-(morpholinomethyl)benzyl) imidazo[1,2-c]quinazoline-2-carboxamide], 0.0023 µM.

For the molecule `CC(C)(C)OC(=O)N1CCC2(CCN(C(=O)c3cn4c(N)nc5c(F)cccc5c4n3)C2)C1` (centres unmarked) [Ex-259, tert-butyl 7-(5-amino-7-fluoroimidazo[1,2-c]quinazoline-2-carbonyl)-2,7-diazaspiro[4.4]nonane-2-carboxylate], the inhibition constant Ki was determined as 0.029 µM. Under `CC(C)(C)OC(=O)N1CCC2(CCCN(C(=O)c3cn4c(N)nc5c(F)cccc5c4n3)C2)C1` (centres unmarked) [Ex-260, tert-butyl 7-(5-amino-7-fluoroimidazo[1,2-c]quinazoline-2-carbonyl)-2,7-diazaspiro[4.5]decane-2-carboxylate] stands 0.015 µM. Take `Nc1nc2c(F)cccc2c2nc(C(=O)NCc3ccccc3N3CCNCC3)cn12` [Ex-261, 5-amino-7-fluoro-N-(2-(piperazin-1-yl)benzyl)imidazo[1,2-c]quinazoline-2-carboxamide]: the inhibitory constant (Ki) is 0.0054 µM. `CC(C)(C)OC(=O)N1CCC2(CCN(C(=O)c3cn4c(N)nc5c(F)cccc5c4n3)CC2)C1` [Ex-262, tert-butyl 8-(5-amino-7-fluoroimidazo[1,2-c]quinazoline-2-carbonyl)-2,8-diazaspiro[4.5]decane-2-carboxylate]: the Ki amounted to 0.053 µM. With `Nc1nc2c(F)cccc2c2nc(C(=O)NCc3ccccc3OC3CCN(c4ccccn4)CC3)cn12` [Ex-263, 5-amino-7-fluoro-N-(2-((1 (pyridin-2-yl)piperidin-4-yl)oxy)benzyl)imidazo[1,2-c]quinazoline-2-carboxamide], the Ki was 0.0029 µM. To `CC(=O)N1CCN(c2ccccc2CNC(=O)c2cn3c(N)nc4c(F)cccc4c3n2)CC1` [Ex-264, N-(2-(4-acetylpiperazin-1-yl)benzyl)-5-amino-7-fluoroimidazo[1,2-c]quinazoline-2-carboxamide] belongs 0.0025 µM. Consider `CC(C)(C)OC(=O)N1CCCC2(CCN(C(=O)c3cn4c(N)nc5c(F)cccc5c4n3)CC2)C1` [Ex-265, tert-butyl 9-(5-amino-7-fluoroimidazo[1,2-c]quinazoline-2-carbonyl)-2,9-diazaspiro[5.5]undecane-2-carboxylate], for which the Ki turned out to be 0.086 µM. Under `Nc1nc2c(F)cccc2c2nc(C(=O)N3CCCC4(CCNC4)C3)cn12` (centres unmarked) [Ex-266, (5-amino-7-fluoroimidazo[1,2-c]quinazolin-2-yl)(2,7-diazaspiro[4.5]decan-7-yl)methanone] stands 0.22 µM; under `Nc1nc2c(F)cccc2c2nc(C(=O)N3CCC4(CCNC4)CC3)cn12` [Ex-267, (5-amino-7-fluoroimidazo[1,2-c]quinazolin-2-yl)(2,8-diazaspiro[4.5]decan-8-yl)methanone], 0.71 µM; under `Nc1nc2c(F)cccc2c2nc(C(=O)N3CCCC4(CCNC4)C3)cn12` (centres unmarked) [Ex-268, (5-amino-7-fluoroimidazo[1,2-c]quinazolin-2-yl)(2,7-diazaspiro[4.5]decan-7-yl)methanone], 0.066 µM.

On to `CC(=O)N1CCC2(CCN(C(=O)c3cn4c(N)nc5c(F)cccc5c4n3)CC2)C1` [Ex-269, 1-(8-(5-amino-7-fluoroimidazo[1,2-c]quinazoline-2-carbonyl)-2,8-diazaspiro[4.5]decan-2-yl)ethan-1-one], for which the Ki stood at 0.2 µM. Under `Nc1nc2c(F)cccc2c2nc(C(=O)N3CCC4(CCCNC4)CC3)cn12` [Ex-270, (5-amino-7-fluoroimidazo[1,2-c]quinazolin-2-yl)(2,9-diazaspiro[5.5]undecan-9-yl)methanone] stands 0.1 µM; under `Nc1nc2c(F)cccc2c2nc(C(=O)NCc3ccccc3N3CCN(CCCO)CC3)cn12` [Ex-271, 5-amino-7-fluoro-N-(2-(4-(3-hydroxypropyl)-piperazin-1-yl)benzyl)-imidazo[1,2-c]-quinazoline-2-carboxamide], 0.012 µM; under `Nc1nc2c(F)cccc2c2nc(C(=O)N3CCC4(CCNC4)C3)cn12` (centres unmarked) [Ex-272, (5-amino-7-fluoroimidazo[1,2-c]quinazolin-2-yl)(2,7-diazaspiro[4.4]nonan-2-yl)methanone], 0.38 µM. Turning to `Nc1nc2c(F)cccc2c2nc(C(=O)N3CCC4(CCN(Cc5ccc(F)cc5)C4)C3)cn12` (centres unmarked) [Ex-273, (5-amino-7-fluoroimidazo[1,2-c]quinazolin-2-yl)(7-(4-fluorobenzyl)-2,7-diazaspiro[4.4]nonan-2-yl)methanone], the inhibitory constant (Ki) worked out at 0.11 µM. To `CC(=O)N1CCC2(CCN(C(=O)c3cn4c(N)nc5c(F)cccc5c4n3)C2)C1` (centres unmarked) [Ex-274, 1-(7-(5-amino-7-fluoroimidazo[1,2-c]quinazoline-2-carbonyl)-2,7-diazaspiro[4.4]nonan-2-yl)ethan-1-one] belongs 0.032 µM.

The values are drawn from US11498923B2 (Merck Sharp & Dohme Corp., priority 2017, dated 2022).
